Measured values: patent US12540131B2 (Merck Sharp & Dohme LLC, priority 2019, dated 2026)

Molecular target: GST tagged truncated human mutant G2019S LRRK2 (Homo sapiens (Human), UniProt Q5S007, G2019S)
Assay: LRRK2 Km ATP LanthaScreen Assay
Type: biochemical
Conditions: G2019S LRRK2, 134 μM ATP (Km ATP), mean values; for IC50: read-out: LRRK2 pIC50 (converted)
Summary of the method: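 Enzyme (GST-tagged, truncated) was preincubated with compound for 15 min at RT in 50 mM Tris pH 8.5, 10 mM MgCl2, 0.01% Brij-35, 1 mM EGTA, 2 mM DTT and 0.05 mM orthovanadate. Fluorescein-LRRKtide and 134 μM ATP (Km) were then added for 90 min. EDTA and Tb-anti-pERM antibody stopped the reaction; the TR-FRET 520/495 ratio gave 4-parameter IC50s, reported as mean pIC50.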

GST tagged truncated human mutant G2019S LRRK2, sequence (Q5S007 970-2527 G2019S): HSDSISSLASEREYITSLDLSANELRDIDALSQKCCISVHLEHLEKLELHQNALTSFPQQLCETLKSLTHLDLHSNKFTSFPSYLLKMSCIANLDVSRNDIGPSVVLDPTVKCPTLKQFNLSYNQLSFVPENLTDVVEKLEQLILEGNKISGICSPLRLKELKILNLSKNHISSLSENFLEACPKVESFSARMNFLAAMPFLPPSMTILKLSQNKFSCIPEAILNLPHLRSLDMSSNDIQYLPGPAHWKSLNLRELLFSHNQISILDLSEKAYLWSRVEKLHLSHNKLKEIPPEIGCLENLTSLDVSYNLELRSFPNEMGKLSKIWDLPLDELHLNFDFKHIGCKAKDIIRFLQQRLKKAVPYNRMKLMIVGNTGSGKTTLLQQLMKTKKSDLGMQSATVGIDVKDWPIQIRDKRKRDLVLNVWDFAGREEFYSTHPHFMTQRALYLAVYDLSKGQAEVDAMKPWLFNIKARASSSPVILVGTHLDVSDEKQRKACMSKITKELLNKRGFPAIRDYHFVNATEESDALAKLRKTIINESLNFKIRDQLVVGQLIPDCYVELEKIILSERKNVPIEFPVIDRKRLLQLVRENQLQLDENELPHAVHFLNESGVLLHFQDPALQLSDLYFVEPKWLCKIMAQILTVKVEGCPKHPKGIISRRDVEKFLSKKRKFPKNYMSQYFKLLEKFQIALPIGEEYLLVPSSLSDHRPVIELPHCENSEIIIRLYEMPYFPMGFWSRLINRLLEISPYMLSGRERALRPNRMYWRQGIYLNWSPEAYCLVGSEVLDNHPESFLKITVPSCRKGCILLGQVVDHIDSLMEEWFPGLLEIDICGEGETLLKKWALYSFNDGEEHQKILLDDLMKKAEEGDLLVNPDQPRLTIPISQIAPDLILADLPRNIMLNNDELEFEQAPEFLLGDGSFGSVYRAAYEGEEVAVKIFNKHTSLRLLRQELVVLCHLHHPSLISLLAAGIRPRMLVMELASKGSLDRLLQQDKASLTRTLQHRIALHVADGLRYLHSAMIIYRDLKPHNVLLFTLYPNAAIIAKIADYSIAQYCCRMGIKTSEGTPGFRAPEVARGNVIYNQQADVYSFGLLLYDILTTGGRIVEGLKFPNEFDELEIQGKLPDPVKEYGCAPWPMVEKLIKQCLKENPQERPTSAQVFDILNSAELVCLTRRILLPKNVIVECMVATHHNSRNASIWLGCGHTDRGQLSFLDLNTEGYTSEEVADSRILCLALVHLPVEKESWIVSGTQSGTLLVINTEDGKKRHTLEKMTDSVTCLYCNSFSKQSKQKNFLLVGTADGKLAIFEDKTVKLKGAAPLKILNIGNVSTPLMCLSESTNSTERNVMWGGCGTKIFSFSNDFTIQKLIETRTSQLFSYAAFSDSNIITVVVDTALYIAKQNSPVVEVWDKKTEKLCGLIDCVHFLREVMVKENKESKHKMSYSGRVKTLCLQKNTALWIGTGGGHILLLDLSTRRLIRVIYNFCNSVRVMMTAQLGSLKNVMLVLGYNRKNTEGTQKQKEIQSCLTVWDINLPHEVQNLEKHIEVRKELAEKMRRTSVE

Compound	LRRK2 pIC50	IC50 [nM]
[2H]C([2H])([2H])n1ncc(Nc2ncc3cc(Cl)c(C4CCN(C5(C)COC5)CC4)cc3n2)c1Cl [Ex-2.72, 6-chloro-N-(5-chloro-1-(methyl-d3)-1H-pyrazol-4-yl)-7-(1-(3-methyloxetan-3-yl)piperidin-4-yl)quinazolin-2-amine]	8.90	–
Cc1cc2cnc(Nc3cnn(C4CC4)c3Cl)nc2cc1C1CCN([C@@H]2COC[C@@H]2O)[C@@H](C)C1 (single isomer, unassigned) [Ex-4.243, (3S,4S)(2S) or (3R,4R)(2S) 4-[4-{2-[(5-chloro-1-cyclopropyl-1H-pyrazol-4-yl)amino]-6-methylquinazolin-7-yl}-2-methylpiperidin-1-yl]oxolan-3-ol]	>9.20	–
O[C@@H]1COCC1N1CC[C@H](c2cc3nc(Nc4cnn(C5CC5(F)F)c4Cl)ncc3cc2Cl)[C@@H](F)C1 (single isomer, unassigned) [Ex-4.184, (R)(3S,4S)(3S,4S) or (R)(3S,4S)(3R,4R) or (R)(3R,4R)(3S,4S) or (R)(3R,4R)(3R,4R) or (S)(3S,4S)(3S,4S) or (S)(3S,4S)(3R,4R) or (S)(3R,4R)(3S,4S) or (S)(3R,4R)(3R,4R) 4-(6-chloro-2-{[5-chloro-1-(2,2-difluorocyclopropyl)-1H-pyrazol-4-yl]amino}quinazolin-7-yl)-3-fluoropiperidin-1-yl]oxolan-3-ol]	>9.20	–
Cc1cc(Nc2ncc3cc(Cl)c(C4CCN([C@]5(C)COC[C@@H]5O)CC4)cc3n2)n(C2CC2)n1 (single isomer, unassigned) [Ex-1.28, (3S,4S) or (3R,4R) 4-(4-{6-chloro-2-[(1-cyclopropyl-3-methyl-1H-pyrazol-5-yl)amino]quinazolin-7-yl}piperidin-1-yl)-4-methyloxolan-3-ol]	9.12	–
Cc1c(Nc2ncc3cc(Cl)c(C4CCN(C5COCC5C#N)CC4)cc3n2)cnn1C1CC1 (single isomer, unassigned) [Ex-2.50, (3S,4S) or (3R,4R) or (3S,4R) or (3R,4S) 4-(4-{6-chloro-2-[(1-cyclopropyl-5-methyl-1H-pyrazol-4-yl)amino]quinazolin-7-yl}piperidin-1-yl)oxolane-3-carbonitrile]	9.13	–
CC(C)(O)Cn1ncc(Nc2ncc3cc(Cl)c(C4CCN(C5COC5)CC4)cc3n2)c1Cl [Ex-4.3, 1-(5-chloro-4-((6-chloro-7-(1-(oxetan-3-yl)piperidin-4-yl)quinazolin-2-yl)amino)-1H-pyrazol-1-yl)-2-methylpropan-2-ol]	>9.20	–
Cc1c(Nc2ncc3cc(Cl)c([C@@H]4CCN(C5COC5)C[C@H]4F)cc3n2)cnn1CC(C)(C)O (single isomer, unassigned) [Ex-4.63, (3S,4S) or (3R,4R) 1-[4-({6-chloro-7-[3-fluoro-1-(oxetan-3-yl)piperidin-4-yl]quinazolin-2-yl}amino)-5-methyl-1H-pyrazol-1-yl]-2-methylpropan-2-ol]	8.83	–
N#CC1COCC1N1CCC(c2cc3nc(Nc4cnn(C5CC5)c4Cl)ncc3cc2Cl)CC1 (single isomer, unassigned) [Ex-4.103, (3S,4S) or (3R,4R) or (3S,4R) or (3R,4S) 4-(4-(6-chloro-2-((5-chloro-1-cyclopropyl-1H-pyrazol-4-yl)amino)quinazolin-7-yl)piperidin-1-yl)tetrahydrofuran-3-carbonitrile]	8.49	–
Cc1cc2cnc(Nc3cnn(C4CC4(F)F)c3Cl)nc2cc1C1CCN([C@H]2COC[C@H]2O)CC1 (single isomer, unassigned) [Ex-2.33, (R)(3S,4S) or (R)(3R,4R) or (S)(3S,4S) or (S)(3R,4R) 4-[4-(2-{[5-chloro-1-(2,2-difluorocyclopropyl)-1H-pyrazol-4-yl]amino}-6-methylquinazolin-7-yl)piperidin-1-yl]oxolan-3-ol]	–	< 0.631
Cc1cc2cnc(Nc3cnn(C4CC4(F)F)c3Cl)nc2cc1[C@@H]1CCN([C@H]2COC[C@H]2O)C[C@H]1F (single isomer, unassigned) [Ex-4.145, (R)(3S,4S)(3S,4S) or (R)(3S,4S)(3R,4R) or (R)(3R,4R)(3S,4S) or (R)(3R,4R)(3R,4R) or (S)(3S,4S)(3S,4S) or (S)(3S,4S)(3R,4R) or (S)(3R,4R)(3S,4S) or (S)(3R,4R)(3R,4R) 4-[4-(2-{[5-chloro-1-(2,2-difluorocyclopropyl)-1H-pyrazol-4-yl]amino}-6-methylquinazolin-7-yl)-3-fluoropiperidin-1-yl]oxolan-3-ol]	>9.20	–
CC1(Cn2ncc(Nc3ncc4cc(Cl)c([C@@H]5CCN(C6COC6)C[C@H]5F)cc4n3)c2Cl)COC1 (single isomer, unassigned) [Ex-2.11, (3S,4S) or (3R,4R) 6-chloro-N-{5-chloro-1-[(3-methyloxetan-3-yl)methyl]-1H-pyrazol-4-yl}-7-[3-fluoro-1-(oxetan-3-yl)piperidin-4-yl]quinazolin-2-amine]	9.10	–
FC(F)Cn1ncc(Nc2ncc3cc(Cl)c([C@@H]4CCN(C5COC5)C[C@H]4F)cc3n2)c1Cl (single isomer, unassigned) [Ex-4.37, (3S,4S) or (3R,4R) 6-chloro-N-[5-chloro-1-(2,2-difluoroethyl)-1H-pyrazol-4-yl]-7-[3-fluoro-1-(oxetan-3-yl)piperidin-4-yl]quinazolin-2-amine]	9.15	–
Cc1c(Nc2ncc3cc(Cl)c(C4CCN(C[C@@H](O)c5c(F)cccc5F)CC4)cc3n2)cnn1C1CC1 [Ex-4.209, (1S)-2-(4-{6-chloro-2-[(1-cyclopropyl-5-methyl-1H-pyrazol-4-yl)amino]quinazolin-7-yl}piperidin-1-yl)-1-(2,6-difluorophenyl)ethan-1-ol]	8.16	–
CC1(C)CC(N2CCC(c3cc4nc(Nc5cnn(C6CC6)c5Cl)ncc4cc3Cl)CC2)CO1 (single isomer, unassigned) [Ex-4.116, (R) or (S) 6-chloro-N-(5-chloro-1-cyclopropyl-1H-pyrazol-4-yl)-7-(1-(5,5-dimethyltetrahydrofuran-3-yl)piperidin-4-yl)quinazolin-2-amine]	–	4.47
C[C@@]1(N2CCC(c3cc4nc(Nc5ccnn5C5CC5(F)F)ncc4cc3Cl)CC2)COC[C@@H]1O (single isomer, unassigned) [Ex-2.87, (S)(3S,4S) or (S)(3R,4R) or (R)(3S,4S) or (R)(3R,4R) 4-[4-(6-chloro-2-{[1-(2,2-difluorocyclopropyl)-1H-pyrazol-5-yl]amino}quinazolin-7-yl)piperidin-1-yl]-4-methyloxolan-3-ol]	8.04	–
Clc1cc2cnc(Nc3cnn(C4CC4)c3Cl)nc2cc1C1CCN(C2COC3(CCC3)C2)CC1 (single isomer, unassigned) [Ex-4.115, (R) or (S) 7-(1-(5-oxaspiro[3.4]octan-7-yl)piperidin-4-yl)-6-chloro-N-(5-chloro-1-cyclopropyl-1H-pyrazol-4-yl)quinazolin-2-amine]	–	0.851
Cc1c(Nc2ncc3cc(Cl)c(C4CCN(C5COC(C)(C)C5)CC4)cc3n2)cnn1C1CC1 (single isomer, unassigned) [Ex-4.174, (R) or (S) 6-chloro-N-(1-cyclopropyl-5-methyl-1H-pyrazol-4-yl)-7-[1-(5,5-dimethyloxolan-3-yl)piperidin-4-yl]quinazolin-2-amine]	–	< 0.631
O[C@H]1COC[C@H]1N1CCC(c2cc3nc(Nc4cnn(C5CC5)c4Cl)ncc3cc2Cl)CC1 (single isomer, unassigned) [Ex-4.104, (3S,4S) or (3R,4R) 4-(4-(6-chloro-2-((5-chloro-1-cyclopropyl-1H-pyrazol-4-yl)amino)quinazolin-7-yl)piperidin-1-yl)tetrahydrofuran-3-ol]	>9.20	–
Cn1nc(Cl)cc1Nc1ncc2cc(Cl)c(C3CCN([C@@]4(C)COC[C@H]4O)CC3)cc2n1 (single isomer, unassigned) [Ex-10.1, (3S,4S) or (3R,4R) 4-(4-(6-chloro-2-((3-chloro-1-methyl-1H-pyrazol-5-yl)amino)quinazolin-7-yl)piperidin-1-yl)-4-methyltetrahydrofuran-3-ol]	–	0.776
